Measured values reported in article PMC9127739, “Hololectin Interdomain Linker Determines Asparaginyl Endopeptidase-Mediated Maturation of Antifungal Hevein-Like Peptides in Oats” (Frontiers in Plant Science, 2022).
Where a SMILES comes first, the peptide text is derived from it. Bridges are numbered along the chain shown (N, C = ends).

Assays:
carboxypeptidase A = assay: Exoproteolytic enzyme stability assay, carboxypeptidase A; assay type: in vitro ADME; settings: carboxypeptidase A (isolated exopeptidase); 200 μM peptide, 100 nM carboxypeptidase A, 50 mM Tris-HCl, 100 mM sodium chloride, 37°C, 4 h (time-points 0 and 6 h); quenched with 1 M HCl; RP-UPLC; n = 3; read-out: Peptide retained after carboxypeptidase A treatment
Description: (§1) Purified avenatides aV1 and S-alkylated aV1 were incubated under the stated conditions and recommended buffer solution. At each time interval, aliquots of samples were taken and RP-UPLC was performed in triplicate.
Purified avenatide aV1 (200 μM) were added to 50 mM Tris-HCl, 100 mM sodium chloride with 100 nM carboxypeptidase A or 20 mM tricine and 0.05% bovine serum albumin (pH 8.0) with 20 U/mL aminopeptidase I. The mixture was incubated in a 37°C water bath for 4 h. At each time-point ([…]), 20 μL of the treated sample was aliquoted and quenched with 5 μL 1 M hydrochloric acid. RP-UPLC was performed to determine the amounts of avenatide aV1 present before and after treatment.

trypsin = assay: Peptide stability assay, trypsin (endopeptidase); assay type: in vitro ADME; settings: recommended buffer, RP-HPLC, n = 3
Description: as §1

[1] = test system: Curvularia lunata (CICC 40301); assay: Anti-fungal microbroth dilution assay; assay type: cell-based; settings: 1 × 10^5 cells/mL spores in half-strength potato dextrose broth, 25°C, 24 h, crystal violet, absorbance 570 nm, read-out: IC50 against C. lunata
Description: (§2) Four phyto-pathogenic fungal strains from the China Center of Industrial Culture Collection (Beijing, China) were used to examine the anti-fungal activity of avenatide aV1: Alternaria alternata (CICC 2465), Curvularia lunata (CICC 40301), Fusarium oxysporum (CICC 2532), and Rhizoctonia solani (CICC 40259). Fungal strains were grown on potato dextrose agar plates at 25°C.
(§3) The half maximal inhibitory concentration levels (IC50) of avenatide aV1 were determined using a microbroth dilution assay ([Loo et al., 2021b]). Fungal spores were harvested from a 4-day old, actively growing fungal plate and suspended in half-strength potato dextrose broth. In the 96-well microplate, 1 × 10^5 cells/mL of spore suspension was mixed with peptides at varying concentrations and incubated at 25°C for 24 h. The cells were then fixed with 100% methanol for 15 min. Staining was done for 45 min with crystal violet dye. MilliQ water was used to remove excess dye. Elution was performed using 1:1 (v/v) ethanol/0.1 N HCl. Absorbance was measured at 570 nm.

[2] = test system: Fusarium oxysporum (CICC 2532); assay: Anti-fungal microbroth dilution assay; assay type: cell-based; settings: 1 × 10^5 cells/mL spores in half-strength potato dextrose broth, 25°C, 24 h, crystal violet, absorbance 570 nm, read-out: IC50 against F. oxysporum
Description: as §2, §3

CC(C)C[C@@H]1NC(=O)CNC(=O)[C@@H]2CSSC[C@@H]3NC(=O)[C@@H]4CCCN4C(=O)[C@H](CO)NC(=O)[C@H](CO)NC(=O)[C@H](CO)NC(=O)[C@H](CO)NC(=O)[C@@H](NC(=O)[C@H](C)N)CSSC[C@H](NC(=O)[C@H](CSSC[C@@H](C(=O)NCC(=O)N[C@@H](CO)C(=O)NCC(=O)N[C@H]4CSSC[C@@H](C(=O)N[C@H](C(=O)NCC(=O)N[C@@H](C)C(=O)O)[C@@H](C)O)NC(=O)[C@@H]5CCCN5C(=O)CNC(=O)[C@H](CO)NC(=O)[C@H](CCC(N)=O)NC4=O)NC(=O)[C@H](Cc4ccc(O)cc4)NC(=O)[C@H](CC(=O)O)NC(=O)CNC(=O)CNC1=O)NC(=O)[C@H](CCC(N)=O)NC(=O)[C@H](CC(N)=O)NC(=O)CNC(=O)[C@@H]1CCCN1C3=O)C(=O)N[C@@H](CO)C(=O)N[C@@H](CCCCN)C(=O)N[C@@H](Cc1c[nH]c3ccccc13)C(=O)NCC(=O)N[C@@H](Cc1ccc(O)cc1)C(=O)N2 [avenatide aV1] (H-ACSSSSPCPGNQCCSKWGYCGLGGDYCGSGCQSGPCTGA-OH; disulfide 2-14, 8-20, 13-27, 31-36)
remaining at 4 h, 200 μM (carboxypeptidase A): > 80%
Peptide retained after trypsin treatment (trypsin): > 80%
IC50 [1]: 74 µM
IC50 [2]: 53 µM
